Reference: patent publication US20240300959A1, “BALASUBRAMIDE DERIVATIVE AND USE THEREOF IN PREPARATION OF MEDICINE FOR TREATING ACUTE LUNG INJURY” (Guangdong Pharmaceutical University, priority 2023, published 2024)

How the values were obtained:
[1] = system: TNF-α in RAW264.7 macrophages stimulated by lipopolysaccharide; test: TNF-α ELISA in cell supernatant of LPS-stimulated RAW264.7 macrophages; type: cell-based, mice; conditions: 10 μM; for activity at 10 µM: Mus musculus, RAW264.7, 2 h, 3 h pretreatment, LPS 100 ng/mL 2 h, RAW264.7, read-out: Percentage of TNF-α in a model group (%)
Protocol: RAW264.7 cells were inoculated into a 96-well plate at a density of 1×10^5 per well. When the cell density was 70%-80%, 18 balasubramide derivatives were prepared into 10 mM working solutions with DMSO, respectively, and then used to pretreat mononuclear macrophages RAW264.7 of mice at a final concentration of 10 μM. After 3 h, lipopolysaccharide (LPS, 100 ng/mL) was added into all wells for action for 2 h except for a control group. A supernatant was collected for later use, and the expression level of an inflammatory factor TNF-α in the cell supernatant was detected according to an operation instruction of a commercial ELISA kit.
RAW264.7 cells were inoculated into a 96-well plate at a density of 1×10^5 per well. When the cell density was 70%-80%, the RAW264.7 cells were pretreated with (+)3C-20 ([…]). After 3 h, lipopolysaccharide (LPS, 100 ng/mL) was added into all wells for action for 2 h except for a control group. The expression level of an inflammatory factor TNF-α in a cell supernatant was detected according to an operation instruction of a commercial ELISA kit, and the cell viability at different administration concentrations of (+)3C-20 was determined according to an operation instruction of a CCK-8 kit.

RAW264.7 cells = test: Cytotoxicity test, CCK-8 cell viability of RAW264.7 cells (24 h); type: cell-based, mice; conditions: 10 μM, RAW264.7 cell viability
Protocol: RAW264.7 cells were inoculated into a 96-well plate at a density of 1×10^5 per well. When the cell density was 70%-80%, the RAW264.7 cells were pretreated with 10 mM working solutions prepared from 18 balasubramide derivatives at a final concentration of 10 μM for 24 h, and then the cell viability was determined by a CCK-8 method.

[2] = system: mice with sepsis and lung injury caused by intraperitoneal injection of lipopolysaccharide; test: Acute lung injury caused by sepsis (intraperitoneal injection of lipopolysaccharide); type: in vivo, ICR mice
Protocol: Administration and grouping of animals: Male ICR mice were used as experimental animals, which were randomly divided into a control group, a model group, a positive administration group and administration groups according to the body weight. The control group and the model group were administered with a solvent by intraperitoneal injection (the solvent was prepared from DMSO, Kolliphor HS15 and Saline at a ratio of 1:2:7), the positive administration group was administered with 5 mg/kg dexamethasone (DEX) by intraperitoneal injection, and the administration groups were administered with (+)3C-20 at a concentration of 10 mg/kg and 50 mg/kg, respectively, by intraperitoneal injection. The dexamethasone and the (+)3C-20 were dissolved in the above solvent and were clear and transparent. The administration was continued for 3 days. 2 h after the last administration, all the other groups were administered with LPS (10 mg/kg) by intraperitoneal injection while the control group was administered with an equal volume of normal saline by intraperitoneal injection. Body weight and lung index: The mice were weighed and randomly divided on day 1 and continuously weighed for 3 days before administration, and growth conditions of the mice were measured by statistics. The mice were administered with LPS by intraperitoneal injection 2 h after administration on day 3, then the mice were dissected 6 h later, and the lungs were taken, weighed and recorded.
On day 3, 6 h after the intraperitoneal injection of LPS, whole blood was collected from eye sockets and then subjected to centrifugation to prepare serum, and the serum was frozen at −80° C. The lungs were subjected to perfusion with PBS and fixed by paraformaldehyde, and the fixed lungs were stained with hematoxylin-eosin (H&E) after dehydration, paraffin embedding and sectioning. The serum was tested by a commercial TNF-α ELISA kit. Histopathological results and data statistics are shown in FIG. 7-1, FIG. 7-2 and Table 7.
A small amount of frozen lung tissues were taken and fully ground, and the expression of inflammation related genes in the lung tissues was detected by an RT-PCR technology according to an operation instruction of an RNA extraction kit.

[3] = system: mice with acute lung injury caused by intratracheal instillation of lipopolysaccharide; test: Acute lung injury caused by lung exposure to bacterial endotoxin (intratracheal instillation of LPS); type: in vivo, ICR mice
Protocol: Grouping, administration and modeling of animals: Male ICR mice were used as experimental animals, which were randomly divided into a control group, a model group, a positive administration group and administration groups according to the body weight. The control group and the model group were administered with a solvent by intraperitoneal injection (the solvent was prepared from DMSO, Kolliphor HS15 and Saline at a ratio of 1:2:7), the positive administration group was administered with 5 mg/kg dexamethasone by intraperitoneal injection, and the administration groups were administered with (+)3C-20 at a concentration of 10 mg/kg and 50 mg/kg, respectively, by intraperitoneal injection. The dexamethasone and the (+)3C-20 were dissolved in the above solvent and were clear and transparent. The administration was continued for 3 days. 2 h after the last administration, the mice were anesthetized with 2.5% isoflurane, necks were disinfected, cortices of the necks were cut, and tracheae were separated. All other groups were administered with 50 μL of 10 mg/mL LPS (LPS dissolved in Saline) at a dose of 20 mg/kg by instillation while the control group was administered with 50 μL of Saline by intratracheal instillation (it.), and the cortices were sutured. 6 h after the instillation of LPS, the mice were sacrificed, and serum and lung tissues were taken for later use. Body weight and lung index: The mice were weighed and randomly divided on day 1 and continuously weighed for 3 days before administration. 2 h after the last administration, the mice were administered with 50 μL of […] LPS by intratracheal instillation. 6 h later, the mice were dissected, and the lungs were taken and weighed.
On day 3, 6 h after the intratracheal instillation of LPS, a part of the mice were subjected to perfusion with PBS and treated with paraformaldehyde to fix the right lobe of the lungs, another part of the mice were dissected to obtain lungs, and the lungs were frozen with liquid nitrogen for later use. The fixed right lungs were stained with hematoxylin-eosin (H&E) after dehydration, paraffin embedding and sectioning. 40 mg of the frozen lungs were cut, 300 μL of an RIPA lysis buffer was added thereto and homogenized by starting for 45 s and stopping for 15 s at a frequency of 60 Hz in 4 cycles for full lysis, and then centrifuged at 12,000 rpm at 4° C. A supernatant was taken, the protein concentration was calibrated and adjusted with a BCA protein assay kit, and then the level of an inflammatory factor TNF-α in lung tissue homogenates of various groups was detected by a commercial TNF-α ELISA kit. Results are shown in Table 10, FIG. 10-1 and FIG. 10-2.
A small amount of frozen lung tissues were taken, a Trizol lysis reagent was added thereto and fully ground, RNA was extracted according to an operation instruction of an RNA extraction kit, and the expression of inflammation related genes in the lung tissues was detected by an RT-PCR technology. Experimental results are shown in Table 11, FIG. 11-1 and FIG. 11-2.

[4] = 5 mg/kg i.p., lung tissue RT-PCR, i.p. LPS
[5] = 5 mg/kg intraperitoneal, i.p. LPS sepsis model, in g (unit assumed)
[6] = 5 mg/kg i.p., lung tissue RT-PCR, intratracheal LPS
[7] = 5 mg/kg intraperitoneal, intratracheal LPS model, in g (unit assumed)

## O=C(CCc1ccc(C(F)(F)F)cc1)O[C@@H]1C(=O)NCCc2c([nH]c3ccccc23)[C@H]1c1ccc(C(F)(F)F)cc1 (racemic) [(±)-3C-20]
[1]; RAW264.7, LPS
  anti-inflammatory activity (inhibition of expression of TNF-α in macrophages), in words: better anti-inflammatory activity than other derivatives

## O=C1NCCc2c([nH]c3ccccc23)[C@@H](c2ccc(C(F)(F)F)cc2)[C@@H]1O [(+)-3C]
RAW264.7 cells
  Percentage of CCK-8 in a model group (%): 105.39 ± 4.26%
[1]
  activity at 10 µM: 86.4 ± 3.06%

## O=C(CCc1ccc(C(F)(F)F)cc1)O[C@@H]1C(=O)NCCc2c([nH]c3cccc(F)c23)[C@H]1c1ccc(C(F)(F)F)cc1 [(+)-B3a]
RAW264.7 cells
  Percentage of CCK-8 in a model group (%): 103.22 ± 1.79%
[1]
  activity at 10 µM: 91.2 ± 3.03%

## COc1ccc2[nH]c3c(c2c1)CCNC(=O)[C@@H](OC(=O)CCc1ccc(C(F)(F)F)cc1)[C@@H]3c1ccc(C(F)(F)F)cc1 [(+)-B3c]
RAW264.7 cells
  Percentage of CCK-8 in a model group (%): 96.16 ± 4.12%
[1]
  activity at 10 µM: 84.5%

## O=C(CCc1ccc(C(F)(F)F)cc1)O[C@@H]1C(=O)NCCc2c([nH]c3ccc(F)cc23)[C@H]1c1ccc(C(F)(F)F)cc1 [(+)-B3d]
RAW264.7 cells
  Percentage of CCK-8 in a model group (%): 90.33 ± 5.86%
[1]
  activity at 10 µM: 101 ± 4.46%

## O=C(CCc1ccc(C(F)(F)F)cc1)O[C@@H]1C(=O)NCCc2c([nH]c3ccc(Br)cc23)[C@H]1c1ccc(C(F)(F)F)cc1 [(+)-B3e]
RAW264.7 cells
  Percentage of CCK-8 in a model group (%): 95.66 ± 4.02%
[1]
  activity at 10 µM: 76.2%

## O=C(CCc1ccc(C(F)(F)F)cc1)O[C@@H]1C(=O)NCCc2c([nH]c3cc(Cl)ccc23)[C@H]1c1ccc(C(F)(F)F)cc1 [(+)-B3f]
RAW264.7 cells
  Percentage of CCK-8 in a model group (%): 96.96 ± 3.85%
[1]
  activity at 10 µM: 90.2 ± 2.92%

## Cc1cccc2c3c([nH]c12)[C@@H](c1ccc(C(F)(F)F)cc1)[C@H](OC(=O)CCc1ccc(C(F)(F)F)cc1)C(=O)NCC3 [(+)-B3g]
RAW264.7 cells
  Percentage of CCK-8 in a model group (%): 101.49 ± 2.57%
[1]
  activity at 10 µM: 78.5%

## O=C(CCc1ccc(C(F)(F)F)cc1)O[C@@H]1C(=O)NCCc2c([nH]c3ccc(OCc4ccccc4)cc23)[C@H]1c1ccc(C(F)(F)F)cc1 [(+)-B3h]
RAW264.7 cells
  Percentage of CCK-8 in a model group (%): 99.75 ± 1.27%
[1]
  activity at 10 µM: 66.1%

## CCOc1ccc2[nH]c3c(c2c1)CCNC(=O)[C@@H](OC(=O)CCc1ccc(C(F)(F)F)cc1)[C@@H]3c1ccc(C(F)(F)F)cc1 [(+)-D7a]
RAW264.7 cells
  Percentage of CCK-8 in a model group (%): 106.69 ± 1.21%
[1]
  activity at 10 µM: 97.7 ± 1.5%

## O=C(CCc1ccc(C(F)(F)F)cc1)O[C@@H]1C(=O)NCCc2c([nH]c3ccc(OC(=O)c4ccc([N+](=O)[O-])cc4)cc23)[C@H]1c1ccc(C(F)(F)F)cc1 [(+)-D7c]
RAW264.7 cells
  Percentage of CCK-8 in a model group (%): 109.17 ± 0.16%
[1]
  activity at 10 µM: 74.5 ± 3.55%

## Cn1c2c(c3ccccc31)CCNC(=O)[C@@H](OC(=O)CCc1ccc(C(F)(F)F)cc1)[C@@H]2c1ccc(C(F)(F)F)cc1 [(+)-c1]
RAW264.7 cells
  Percentage of CCK-8 in a model group (%): 105.02 ± 2.84%
[1]
  activity at 10 µM: 83.4%

## CCn1c2c(c3ccccc31)CCNC(=O)[C@@H](OC(=O)CCc1ccc(C(F)(F)F)cc1)[C@@H]2c1ccc(C(F)(F)F)cc1 [(+)-c2]
RAW264.7 cells
  Percentage of CCK-8 in a model group (%): 102.17 ± 2.74%
[1]
  activity at 10 µM: 101 ± 1.21%

## CCCn1c2c(c3ccccc31)CCNC(=O)[C@@H](OC(=O)CCc1ccc(C(F)(F)F)cc1)[C@@H]2c1ccc(C(F)(F)F)cc1 [(+)-c3]
RAW264.7 cells
  Percentage of CCK-8 in a model group (%): 110.41 ± 0.54%
[1]
  activity at 10 µM: 81.8 ± 1.11%

## C[C@@H]1C[C@H]2[C@@H]3CCC4=CC(=O)C=C[C@]4(C)[C@@]3(F)[C@@H](O)C[C@]2(C)[C@@]1(O)C(=O)CO [Dexamethasone, dexamethasone, reference compound]
[2]; 5 mg/kg i.p., 6 h after i.p. LPS
  Content of TNF-α in serum (% of Model): 40.09 ± 2.26 % of Model
[2]; 5 mg/kg i.p., 6 h after i.p. LPS, H&E lung sections
  Area percentage of alveolar cells (%): 32.2 ± 0.95 %
[2]; [4]
  Change multiple of IL-1β: 8.65 ± 1.04
  Change multiple of IL-6: 40.56 ± 7.55
  Change multiple of TNF-α: 6.09 ± 0.82
  Change multiple of iNOS: 2.61 ± 0.39
[2]; 5 mg/kg intraperitoneal 3 days, 6 h after i.p. LPS 10 mg/kg
  Lung index (%): 0.649 ± 0.01 %
[2]; [5]
  Body weight (Day 1): 25.11 ± 0.52
  Body weight (Day 2): 26.23 ± 0.38
  Body weight (Day 3): 26.97 ± 0.45
[3]; 5 mg/kg i.p., 6 h after intratracheal LPS
  Content of TNF-α in a lung tissue homogenate (% of Model): 54.882 ± 6.836 % of Model
[3]; 5 mg/kg i.p., 6 h after intratracheal LPS, H&E lung sections
  Area percentage of alveolar cells (%): 34.322 ± 2.452 %
[3]; [6]
  Change multiple of COX-2: 2.75 ± 0.24
  Change multiple of IL-1β: 12.38 ± 1.28
  Change multiple of IL-6: 14.75 ± 2.71
  Change multiple of TNF-α: 18.63 ± 2.26
  Change multiple of iNOS: 10.02 ± 1.78
[3]; 5 mg/kg intraperitoneal 3 days, 6 h after intratracheal LPS
  Lung index (%): 0.591 ± 0.008 %
[3]; [7]
  Body weight (Day 1): 27.51 ± 0.11
  Body weight (Day 2): 28.75 ± 0.17
  Body weight (Day 3): 29.48 ± 0.17
